Data published in ChEMBL document CHEMBL1201862, “PubChem BioAssay data set” (2004).
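How tested: cells in 96-well plates exposed to compound for 48 hours at five concentrations. GI50: concentration for 50% inhibition of growth.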 Active and inactive are the calls of the source. Rule as the data show it: active = GI50 up to about 1.1 µM and inactive = higher.

Tests used:
Test in all cases: NCI tumour cell line growth inhibition, 48 h
LOX IMVI = test system: LOX IMVI
CCRF-CEM = test system: CCRF-CEM
OVCAR-5 = test system: OVCAR-5
OVCAR-8 = test system: OVCAR-8
SF-268 = test system: SF-268
OVCAR-3 = test system: OVCAR-3
HCT-116 = test system: HCT-116
UACC-62 = test system: UACC-62
RPMI-8226 = test system: RPMI-8226
SK-MEL-28 = test system: SK-MEL-28
Malme-3M = test system: Malme-3M
UACC-257 = test system: UACC-257
A498 = test system: A498
EKVX = test system: EKVX
SNB-19 = test system: SNB-19
K562 = test system: K562
IGROV-1 = test system: IGROV-1
SN12C = test system: SN12C
NCI/ADR-RES = test system: NCI/ADR-RES
PC-3 = test system: PC-3

Measured: GI50

CSc1ccc2c(cc1=O)[C@@H](NC(=O)c1ccc(Cl)cc1)CCc1cc(O)c(O)c(O)c1-2
inactive: LOX IMVI 18.6 µM | CCRF-CEM 28.1 µM | OVCAR-5 > 100 µM | OVCAR-8 50 µM | SF-268 > 100 µM | OVCAR-3 23.2 µM | HCT-116 18.2 µM | UACC-62 22.5 µM | RPMI-8226 23.3 µM | SK-MEL-28 80 µM | Malme-3M > 100 µM | UACC-257 > 100 µM | A498 > 100 µM | EKVX 69.2 µM | SNB-19 49.5 µM | K562 18.2 µM | IGROV-1 22.1 µM | SN12C 24.5 µM

COc1ccc(C(=O)C#Cc2cn(C3CC(O)C(CO)O3)c(=O)[nH]c2=O)cc1 (stereo not drawn)
inactive: CCRF-CEM > 10 µM | OVCAR-8 > 100 µM | SF-268 53 µM | NCI/ADR-RES 42.6 µM | OVCAR-3 19.2 µM | PC-3 > 100 µM | HCT-116 39.7 µM | UACC-62 55.5 µM | RPMI-8226 > 100 µM | SK-MEL-28 20.4 µM | Malme-3M 10.4 µM | UACC-257 94.8 µM | EKVX > 100 µM | SNB-19 > 100 µM | K562 36.5 µM | IGROV-1 > 100 µM | SN12C 28.7 µM

O=C1c2cc([N+](=O)[O-])cnc2S(=O)(=O)N1c1ccc(Oc2ccccc2)cc1
inactive: LOX IMVI > 100 µM | CCRF-CEM 39 µM | OVCAR-5 > 100 µM | OVCAR-8 > 100 µM | NCI/ADR-RES > 100 µM | OVCAR-3 > 100 µM | PC-3 > 100 µM | HCT-116 > 100 µM | UACC-62 > 100 µM | RPMI-8226 > 100 µM | SK-MEL-28 > 100 µM | Malme-3M > 100 µM | EKVX > 100 µM | SNB-19 > 100 µM | K562 > 100 µM | IGROV-1 > 100 µM | SN12C > 100 µM

CCOC(=O)C(NC(=O)c1ccccc1)(Nc1cc(C)on1)C(F)(F)F (stereo not drawn)
inactive: LOX IMVI > 100 µM | CCRF-CEM > 100 µM | OVCAR-5 > 100 µM | OVCAR-8 > 100 µM | SF-268 > 100 µM | NCI/ADR-RES > 100 µM | OVCAR-3 > 100 µM | PC-3 > 100 µM | HCT-116 > 100 µM | UACC-62 > 100 µM | RPMI-8226 > 100 µM | SK-MEL-28 > 100 µM | Malme-3M > 100 µM | UACC-257 > 100 µM | EKVX > 100 µM | SNB-19 > 100 µM | K562 > 100 µM | IGROV-1 > 100 µM | SN12C > 100 µM

S=C1CC(c2ccccc2)Sc2ccccc2N1 (stereo not drawn)
inactive: LOX IMVI > 100 µM | CCRF-CEM > 100 µM | OVCAR-5 76.6 µM | OVCAR-8 > 100 µM | SF-268 38.8 µM | NCI/ADR-RES 68.9 µM | OVCAR-3 45.5 µM | PC-3 6.85 µM | HCT-116 37 µM | UACC-62 51.1 µM | RPMI-8226 > 100 µM | SK-MEL-28 51.4 µM | Malme-3M 67.1 µM | UACC-257 > 100 µM | EKVX 72.8 µM | SNB-19 35.6 µM | K562 > 100 µM | IGROV-1 > 100 µM | SN12C 97.7 µM

CCOC(=O)[C@@]1(C)CC(O)C(=O)N1C (stereo partly drawn)
inactive: LOX IMVI > 100 µM | CCRF-CEM > 100 µM | OVCAR-5 > 100 µM | OVCAR-8 > 100 µM | SF-268 > 100 µM | NCI/ADR-RES > 100 µM | OVCAR-3 > 100 µM | PC-3 > 100 µM | HCT-116 > 100 µM | UACC-62 > 100 µM | RPMI-8226 > 100 µM | SK-MEL-28 > 100 µM | Malme-3M > 100 µM | UACC-257 > 100 µM | EKVX > 100 µM | SNB-19 > 100 µM | IGROV-1 > 100 µM | SN12C > 100 µM

O=C(Nc1ccccc1-c1nc2ccccc2[nH]c1=O)c1ccccc1
inactive: LOX IMVI 24.3 µM | CCRF-CEM > 100 µM | OVCAR-5 63.4 µM | OVCAR-8 22.9 µM | SF-268 22.9 µM | OVCAR-3 20.3 µM | HCT-116 20.1 µM | UACC-62 26.1 µM | RPMI-8226 21.8 µM | SK-MEL-28 43.5 µM | Malme-3M 32.1 µM | UACC-257 44 µM | A498 20.4 µM | EKVX 25.3 µM | SNB-19 24.2 µM | K562 > 100 µM | IGROV-1 26.4 µM | SN12C 27.3 µM

CC(=O)OCC1OC(c2c(OC(C)=O)cc(C)c3c(=O)cc(/C(C(C)=O)=C(\C)O)oc23)C(OC(C)=O)C(OC(C)=O)C1OC(C)=O (stereo not drawn)
inactive: CCRF-CEM > 100 µM | OVCAR-5 > 100 µM | OVCAR-8 > 100 µM | SF-268 87.7 µM | NCI/ADR-RES > 100 µM | OVCAR-3 > 100 µM | PC-3 > 100 µM | HCT-116 > 100 µM | UACC-62 > 100 µM | RPMI-8226 > 100 µM | SK-MEL-28 > 100 µM | Malme-3M > 100 µM | UACC-257 > 100 µM | EKVX > 100 µM | SNB-19 > 100 µM | K562 > 100 µM | IGROV-1 > 100 µM | SN12C > 100 µM

COC(=O)/C(=N\O)C(C(=O)C=C(C)C)C(=O)C(=O)Nc1ccccc1C (stereo not drawn)
inactive: LOX IMVI > 100 µM | CCRF-CEM > 100 µM | OVCAR-5 > 100 µM | OVCAR-8 > 100 µM | SF-268 > 100 µM | OVCAR-3 > 100 µM | HCT-116 > 100 µM | UACC-62 > 100 µM | RPMI-8226 > 100 µM | SK-MEL-28 > 100 µM | Malme-3M > 100 µM | UACC-257 > 100 µM | A498 > 100 µM | EKVX > 100 µM | SNB-19 > 100 µM | K562 > 100 µM | IGROV-1 > 100 µM | SN12C > 100 µM

CC1(C)CN=C(Nc2cccc(C(F)(F)F)c2)S1
inactive: LOX IMVI > 100 µM | CCRF-CEM > 100 µM | OVCAR-5 > 100 µM | OVCAR-8 > 100 µM | SF-268 > 100 µM | NCI/ADR-RES > 100 µM | OVCAR-3 > 100 µM | PC-3 > 100 µM | HCT-116 > 100 µM | UACC-62 > 100 µM | RPMI-8226 > 100 µM | SK-MEL-28 > 100 µM | Malme-3M > 100 µM | UACC-257 > 100 µM | EKVX > 100 µM | SNB-19 > 100 µM | K562 > 100 µM | IGROV-1 > 100 µM | SN12C > 100 µM

Cc1c(O)c(=O)ccn1C1OC(CO)C(O)C1O (stereo not drawn)
inactive: LOX IMVI 56.2 µM | CCRF-CEM 39.5 µM | OVCAR-5 > 100 µM | OVCAR-8 > 100 µM | SF-268 > 100 µM | OVCAR-3 > 100 µM | HCT-116 62.1 µM | UACC-62 96.2 µM | RPMI-8226 > 100 µM | SK-MEL-28 > 100 µM | Malme-3M > 100 µM | UACC-257 > 100 µM | A498 > 100 µM | EKVX > 100 µM | SNB-19 > 100 µM | K562 50.4 µM | SN12C > 100 µM

CC(C)(C)OC(=O)N1CCC[C@H]1CSC[C@@H]1CCCN1C(=O)OC(C)(C)C
inactive: LOX IMVI 17.6 µM | CCRF-CEM 24.2 µM | OVCAR-5 34.2 µM | OVCAR-8 29.3 µM | SF-268 39.4 µM | NCI/ADR-RES 18.7 µM | OVCAR-3 22.4 µM | PC-3 26.9 µM | HCT-116 25.6 µM | UACC-62 21.7 µM | SK-MEL-28 24.6 µM | Malme-3M 25.6 µM | UACC-257 28.8 µM | EKVX 32.8 µM | SNB-19 25.4 µM | K562 24.5 µM | IGROV-1 43.4 µM | SN12C 32.2 µM

O=c1[nH]nc(Nc2ccccc2)c2nnn(C3CCCCC3)c12
inactive: LOX IMVI > 100 µM | CCRF-CEM > 100 µM | OVCAR-5 > 100 µM | OVCAR-8 > 100 µM | NCI/ADR-RES > 100 µM | OVCAR-3 > 100 µM | PC-3 > 100 µM | HCT-116 > 100 µM | RPMI-8226 > 100 µM | SK-MEL-28 > 100 µM | Malme-3M > 100 µM | UACC-257 > 100 µM | EKVX > 100 µM | SNB-19 > 100 µM | K562 > 100 µM | SN12C > 100 µM

Cc1c2ccccc2c(=O)n2c(-c3ccccn3)cccc12
inactive: LOX IMVI > 100 µM | CCRF-CEM > 100 µM | OVCAR-5 > 10 µM | OVCAR-8 > 100 µM | SF-268 > 100 µM | OVCAR-3 97.1 µM | HCT-116 > 100 µM | UACC-62 > 100 µM | RPMI-8226 > 100 µM | SK-MEL-28 > 100 µM | Malme-3M > 100 µM | UACC-257 94.8 µM | A498 29.8 µM | EKVX > 100 µM | SNB-19 > 100 µM | K562 > 100 µM | IGROV-1 > 100 µM | SN12C > 100 µM

CCN(CC)c1c(C(=O)/C=C/c2ccc(F)cc2)c(-c2ccccc2)nn(C)c1=O
inactive: LOX IMVI 7.35 µM | CCRF-CEM 2.11 µM | OVCAR-5 22.4 µM | OVCAR-8 4.7 µM | SF-268 8.79 µM | OVCAR-3 3.82 µM | HCT-116 3.87 µM | UACC-62 10.3 µM | RPMI-8226 2.94 µM | SK-MEL-28 14.1 µM | Malme-3M 13.3 µM | UACC-257 6.89 µM | A498 7.57 µM | EKVX 13.8 µM | SNB-19 17 µM | K562 12.4 µM | IGROV-1 5.98 µM | SN12C 6.93 µM
